According to the CheMixHub viscosity set:
± gives the uncertainty stated by the source.

Test: xn = mol fraction of the nth substance listed

CCCCCCCCCCCC + CCCCCC
Conditions	viscosity [mPa·s]
293.15 K, 100 kPa, x2 = 0.0986	1.294 ± 0.016
293.15 K, 100 kPa, x2 = 0.2	1.18 ± 0.01
293.15 K, 100 kPa, x2 = 0.2024	1.137 ± 0.014
293.15 K, 100 kPa, x2 = 0.2991	1.003 ± 0.012
293.15 K, 100 kPa, x2 = 0.4	0.89 ± 0.02
293.15 K, 100 kPa, x2 = 0.4003	0.864 ± 0.011
293.15 K, 100 kPa, x2 = 0.5036	0.746 ± 0.009
293.15 K, 100 kPa, x2 = 0.6	0.67 ± 0.01
293.15 K, 100 kPa, x2 = 0.6025	0.635 ± 0.008
293.15 K, 100 kPa, x2 = 0.7016	0.538 ± 0.007
293.15 K, 100 kPa, x2 = 0.8	0.47 ± 0.01
293.15 K, 100 kPa, x2 = 0.8003	0.453 ± 0.006
293.15 K, 100 kPa, x2 = 0.899	0.382 ± 0.005
298.1 K, 100 kPa, x2 = 0.5	0.719 ± 0.029
298.15 K, 100 kPa, x2 = 0.0986	1.188 ± 0.015
298.15 K, 100 kPa, x2 = 0.2024	1.049 ± 0.013
298.15 K, 100 kPa, x2 = 0.2991	0.929 ± 0.012
298.15 K, 100 kPa, x2 = 0.4003	0.803 ± 0.01
298.15 K, 100 kPa, x2 = 0.5036	0.697 ± 0.009
298.15 K, 100 kPa, x2 = 0.6025	0.596 ± 0.007
298.15 K, 100 kPa, x2 = 0.7016	0.508 ± 0.006
298.15 K, 100 kPa, x2 = 0.8003	0.429 ± 0.005
298.15 K, 100 kPa, x2 = 0.899	0.363 ± 0.005
298.15 K, 101 kPa, x1 = 0.1924	0.4343 ± 0.01
298.15 K, 101 kPa, x1 = 0.4248	0.6351 ± 0.012
298.15 K, 101 kPa, x1 = 0.605	0.8243 ± 0.013
298.15 K, 101 kPa, x1 = 0.8064	1.067 ± 0.013
298.15 K, 101.33 kPa, x1 = 0.0232	0.3154 ± 0.0036
298.15 K, 101.33 kPa, x1 = 0.0783	0.3506 ± 0.0039
298.15 K, 101.33 kPa, x1 = 0.1615	0.4067 ± 0.0044
298.15 K, 101.33 kPa, x1 = 0.1736	0.4183 ± 0.0045
298.15 K, 101.33 kPa, x1 = 0.3209	0.5387 ± 0.0056
298.15 K, 101.33 kPa, x1 = 0.411	0.6213 ± 0.0064
298.15 K, 101.33 kPa, x1 = 0.6005	0.8244 ± 0.0082
298.15 K, 101.33 kPa, x1 = 0.6932	0.9294 ± 0.0092
298.15 K, 101.33 kPa, x1 = 0.8557	1.137 ± 0.011
298.15 K, 101.33 kPa, x1 = 0.9271	1.241 ± 0.012
298.15 K, 101.33 kPa, x2 = 0.1128	1.196 ± 0.015
298.15 K, 101.33 kPa, x2 = 0.2137	1.047 ± 0.013
298.15 K, 101.33 kPa, x2 = 0.3024	0.9328 ± 0.012
298.15 K, 101.33 kPa, x2 = 0.4043	0.8164 ± 0.011
298.15 K, 101.33 kPa, x2 = 0.5067	0.7076 ± 0.0095
298.15 K, 101.33 kPa, x2 = 0.6062	0.6105 ± 0.0084
298.15 K, 101.33 kPa, x2 = 0.7222	0.5009 ± 0.0072
298.15 K, 101.33 kPa, x2 = 0.8039	0.4331 ± 0.0064
298.15 K, 101.33 kPa, x2 = 0.9037	0.3631 ± 0.0057
298.27 K, 101.3 kPa, x1 = 0.4998	0.7168 ± 0.0088
298.47 K, 101.3 kPa, x1 = 0.2499	0.4774 ± 0.0059
298.47 K, 101.3 kPa, x1 = 0.7481	1.002 ± 0.012
303.15 K, 100 kPa, x2 = 0.0986	1.095 ± 0.014
303.15 K, 100 kPa, x2 = 0.2024	0.971 ± 0.012
303.15 K, 100 kPa, x2 = 0.2991	0.864 ± 0.011
303.15 K, 100 kPa, x2 = 0.4003	0.75 ± 0.009
303.15 K, 100 kPa, x2 = 0.5036	0.653 ± 0.008
303.15 K, 100 kPa, x2 = 0.6025	0.561 ± 0.007
303.15 K, 100 kPa, x2 = 0.7016	0.479 ± 0.006
303.15 K, 100 kPa, x2 = 0.8003	0.407 ± 0.005
303.15 K, 100 kPa, x2 = 0.899	0.352 ± 0.004
303.57 K, 101.3 kPa, x1 = 0.7481	0.9319 ± 0.011
303.58 K, 101.3 kPa, x1 = 0.2499	0.4512 ± 0.0056
308.12 K, 101.3 kPa, x1 = 0.7481	0.8716 ± 0.011
308.15 K, 100 kPa, x2 = 0.0986	1.013 ± 0.013
308.15 K, 100 kPa, x2 = 0.2024	0.902 ± 0.011
308.15 K, 100 kPa, x2 = 0.2991	0.805 ± 0.01
308.15 K, 100 kPa, x2 = 0.4003	0.702 ± 0.009
308.15 K, 100 kPa, x2 = 0.5036	0.613 ± 0.008
308.15 K, 100 kPa, x2 = 0.6025	0.529 ± 0.007
308.15 K, 100 kPa, x2 = 0.7016	0.453 ± 0.006
308.15 K, 100 kPa, x2 = 0.8003	0.388 ± 0.005
308.15 K, 100 kPa, x2 = 0.899	0.334 ± 0.004
308.15 K, 101.33 kPa, x1 = 0.0232	0.2875 ± 0.0034
308.15 K, 101.33 kPa, x1 = 0.0783	0.3133 ± 0.0036
308.15 K, 101.33 kPa, x1 = 0.1615	0.3656 ± 0.0041
308.15 K, 101.33 kPa, x1 = 0.1736	0.3742 ± 0.0042
308.15 K, 101.33 kPa, x1 = 0.3209	0.4799 ± 0.0051
308.15 K, 101.33 kPa, x1 = 0.411	0.5504 ± 0.0057
308.15 K, 101.33 kPa, x1 = 0.6005	0.7191 ± 0.0073
308.15 K, 101.33 kPa, x1 = 0.8557	0.9709 ± 0.0097
308.15 K, 101.33 kPa, x1 = 0.9271	1.054 ± 0.01
308.18 K, 101.3 kPa, x1 = 0.4998	0.6313 ± 0.0077
308.23 K, 101.3 kPa, x1 = 0.2499	0.4292 ± 0.0053
311.42 K, 101.3 kPa, x1 = 0.2499	0.4144 ± 0.0051
313.15 K, 100 kPa, x2 = 0.0986	0.941 ± 0.012
313.15 K, 100 kPa, x2 = 0.2	0.87 ± 0.01
313.15 K, 100 kPa, x2 = 0.2024	0.841 ± 0.01
313.15 K, 100 kPa, x2 = 0.2991	0.753 ± 0.009
313.15 K, 100 kPa, x2 = 0.4	0.69 ± 0.01
313.15 K, 100 kPa, x2 = 0.4003	0.658 ± 0.008
313.15 K, 100 kPa, x2 = 0.5036	0.578 ± 0.007
313.15 K, 100 kPa, x2 = 0.6	0.53 ± 0.01
313.15 K, 100 kPa, x2 = 0.6025	0.5 ± 0.006
313.15 K, 100 kPa, x2 = 0.7016	0.43 ± 0.005
313.15 K, 100 kPa, x2 = 0.8	0.38 ± 0.01
313.15 K, 100 kPa, x2 = 0.8003	0.37 ± 0.005
313.15 K, 100 kPa, x2 = 0.899	0.317 ± 0.004
318.15 K, 100 kPa, x2 = 0.0986	0.876 ± 0.011
318.15 K, 100 kPa, x2 = 0.2024	0.786 ± 0.01
318.15 K, 100 kPa, x2 = 0.2991	0.706 ± 0.009
318.15 K, 100 kPa, x2 = 0.4003	0.619 ± 0.008
318.15 K, 100 kPa, x2 = 0.5036	0.545 ± 0.007
318.15 K, 100 kPa, x2 = 0.6025	0.474 ± 0.006
318.15 K, 100 kPa, x2 = 0.7016	0.409 ± 0.005
318.15 K, 100 kPa, x2 = 0.8003	0.359 ± 0.005
318.15 K, 100 kPa, x2 = 0.899	0.302 ± 0.004
322.68 K, 101.3 kPa, x1 = 0.4998	0.5301 ± 0.0065
323.08 K, 101.3 kPa, x1 = 0.2499	0.3672 ± 0.0045
323.15 K, 100 kPa, x2 = 0.0986	0.819 ± 0.01
323.15 K, 100 kPa, x2 = 0.2024	0.736 ± 0.009
323.15 K, 100 kPa, x2 = 0.2991	0.663 ± 0.008
323.15 K, 100 kPa, x2 = 0.4003	0.584 ± 0.007
323.15 K, 100 kPa, x2 = 0.5036	0.515 ± 0.006
323.15 K, 100 kPa, x2 = 0.6025	0.45 ± 0.006
323.15 K, 100 kPa, x2 = 0.7016	0.389 ± 0.005
323.15 K, 100 kPa, x2 = 0.8003	0.342 ± 0.004
323.15 K, 100 kPa, x2 = 0.899	0.287 ± 0.004
